The results in this text go back to US8338565B2, “Macrocyclic compounds for inhibition of tumor necrosis factor alpha” (Ensemble Therapeutics Corporation, priority 2008, dated 2012).

Where “and” joins values, the source holds several entries; their conditions need not be identical. Identical values can stand only once. Numbered stars: 1 amine (or outer) side, 2 acyl side, 3 side chain; on linkers, the order of the positions; unused ones are H or OH. Bridge positions count the residues as written; N and C are the ends. Square brackets hold non-standard residues; d marks the D form. Peptide text beside a SMILES is read from it. * marks the point of attachment. Phe(4-CF3) = N[C@@H](Cc1ccc(C(F)(F)F)cc1)C(=O)O; Bip = N[C@@H](Cc1ccc(-c2ccccc2)cc1)C(=O)O; dPhe(4-NH2) = Nc1ccc(C[C@@H](N)C(=O)O)cc1; Phe(4-NH2) = Nc1ccc(C[C@H](N)C(=O)O)cc1; d(β3hF) = N[C@@H](CC(=O)O)Cc1ccccc1; d(hPhe) = N[C@H](CCc1ccccc1)C(=O)O; Malonyl = O=C(CC(=O)[*:2])[*:1]; d2Thi = N[C@H](Cc1cccs1)C(=O)O; Suc = O=C(CCC(=O)[*:2])[*:1]; Ac3c = NC1(C(=O)O)CC1; Ava = NCCCCC(=O)O; OtBu = CC(C)(C)O*

T1 sequence (P01375 77-233 limits assumed, species assumed): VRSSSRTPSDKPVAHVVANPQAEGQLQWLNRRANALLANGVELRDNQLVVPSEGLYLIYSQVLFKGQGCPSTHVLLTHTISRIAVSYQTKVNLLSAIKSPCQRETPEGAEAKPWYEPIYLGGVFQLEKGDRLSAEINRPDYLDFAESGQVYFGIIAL

One experiment concerns the target T1, TNFα / TNFα receptor (TNFα R1/Fc) (Homo sapiens, UniProt P01375).
T1 construct: purchased R&D Systems
As to the kind of experiment: Inhibition of binding of TNFα to the TNFα receptor (plate ELISA competition). As to conditions: Activity (IC50, inhibition of TNFα binding to TNFα R1/Fc), Table 2. Put shortly:
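Plates were coated with TNFα at 15 nM. Test compound and 8.33 nM receptor-Fc (PBST, 2% DMSO) were first mixed in solution for 30 min at room temperature, then transferred to the plates for another 30 min. Competition was read by absorbance at 450 nm after HRP anti-human IgG Fc detection with TMB.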
In general terms: An ELISA detects its analyte on a solid surface through an enzyme-linked reagent.
In the case of `O=C1COc2ccc(cc2)C[C@@H](C(=O)NCc2nnn[nH]2)NC(=O)[C@H](CCc2ccccc2)NC(=O)[C@@H](Cc2ccc(-c3ccccc3)cc2)NC(=O)[C@H](Cc2c[nH]c3ccccc23)N1` [Compound 746], the IC50 was below 10 µM.

Staying with this experiment, now noted: Table 2; read-out: Activity (IC50, inhibition of TNFα binding to TNFα R1/Fc).
On to `O=C1COc2ccc(cc2)C[C@@H](C(=O)O)NC(=O)[C@H](CCc2ccccc2)NC(=O)[C@@H](Cc2ccc(-c3ccccc3)cc2)NC(=O)[C@H](Cc2ccccn2)N1` [Compound 660], for which the IC50 was below 10 µM.
With `CC(C)(C)Oc1ccc(C[C@@H]2NC(=O)COc3ccc(cc3)C[C@@H](C(=O)O)NC(=O)[C@H](Cc3ccccc3)NC(=O)[C@H](Cc3ccc(-c4ccccc4)cc3)NC2=O)cc1` [Compound 489], the IC50 was above 100 µM.
Turning to `O=C1CCC(=O)N[C@H](Cc2cccs2)C(=O)N[C@@H](Cc2ccc(-c3ccccc3)cc2)C(=O)N[C@H](Cc2ccccc2)C(=O)N[C@H](C(=O)N2CCC[C@@H]2C(=O)O)Cc2ccc(cc2)N1` [Compound 32] ([d2Thi][Bip][dF][Phe(4-NH2)][dP]-OH; linker N-4 via Suc), the IC50 was above 100 µM.
With `O=C1CCC(=O)N[C@H](CCc2ccccc2)C(=O)N[C@@H](Cc2ccc(C(F)(F)F)cc2)C(=O)N[C@H](Cc2ccccc2)C(=O)N[C@@H](C(=O)NC2(C(=O)O)CC2)Cc2ccc(cc2)N1` [Compound 17] ([d(hPhe)][Phe(4-CF3)][dF][dPhe(4-NH2)][Ac3c]-OH; linker N-4 via Suc), the IC50 fell in the range of 10 to 30 µM.
Regarding `O=C1CCC(=O)N[C@H](Cc2ccccc2)C(=O)N[C@@H](Cc2ccc(-c3ccccc3)cc2)C(=O)N[C@H](Cc2ccccc2)C(=O)N[C@H](C(=O)O)Cc2ccc(cc2)N1` [Compound 128] ([dF][Bip][dF][Phe(4-NH2)]-OH; linker N-4 via Suc), the IC50 fell in the range of 30 to 100 µM.
Turning to `O=C(O)CCCNC(=O)[C@H]1Cc2ccc(cc2)OCC(=O)N[C@@H](Cc2ccncc2)C(=O)N[C@H](Cc2ccc(-c3ccccc3)cc2)C(=O)N[C@@H](CCc2ccccc2)C(=O)N1` [compound 715], the IC50 is 10 to 30 µM and > 100 µM.
On to `CC(C)(C)OC(=O)C[C@@H]1NC(=O)[C@H](Cc2ccc(-c3ccccc3)cc2)NC(=O)[C@@H](Cc2cccs2)NC(=O)CCC(=O)Nc2ccc(cc2)C[C@@H](C(=O)O)NC1=O` [Compound 62] ([d2Thi][Bip]D(OtBu)[Phe(4-NH2)]-OH; linker N-4 via Suc), for which the IC50 was above 100 µM.
Regarding `CC(=O)N[C@@H]1CC(=O)N[C@H](Cc2cccs2)C(=O)N[C@@H](Cc2ccc(-c3ccccc3)cc2)C(=O)N[C@H](Cc2ccccc2)C(=O)N[C@H](C(=O)O)Cc2ccc(cc2)NC1=O` [Compound 378], the IC50 was in the range of 10 to 30 µM.
As for `O=C(O)CCCCNC(=O)[C@@H]1Cc2ccc(cc2)NC(=O)CCC(=O)N[C@H](Cc2cccs2)C(=O)N[C@@H](Cc2ccc(-c3ccccc3)cc2)C(=O)N[C@H](CCc2ccccc2)C(=O)N1` [Compound 450] ([d2Thi][Bip][d(hPhe)][Phe(4-NH2)][Ava]-OH; linker N-4 via Suc), the IC50 lay within 30 to 100 µM.
For `O=C(O)CCNC(=O)[C@@H]1Cc2ccc(cc2)NC(=O)[C@H](O)[C@@H](O)C(=O)N[C@H](Cc2cccs2)C(=O)N[C@@H](Cc2ccc(-c3ccccc3)cc2)C(=O)N[C@H](CCc2ccccc2)C(=O)N1` [Compound 401], the IC50 was below 10 µM.
As for `O=C1CCC(=O)N[C@H](Cc2cccs2)C(=O)N[C@@H](Cc2ccc(-c3ccccc3)cc2)C(=O)N[C@H](Cc2ccccc2)CC(=O)N[C@H](C(=O)O)Cc2ccc(cc2)N1` [Compound 56] ([d2Thi][Bip][d(β3hF)][Phe(4-NH2)]-OH; linker N-4 via Suc), the IC50 is above 100 µM.
`CC(C)(C)OC(=O)CC[C@@H]1NC(=O)[C@H](Cc2ccc(-c3ccccc3)cc2)NC(=O)[C@H](Cc2cccs2)NC(=O)COc2ccc(cc2)C[C@@H](C(=O)O)NC1=O` [Compound 259]: the IC50 lay within 30 to 100 µM.
As to `CS(=O)(=O)NC(=O)[C@@H]1Cc2ccc(cc2)OCC(=O)N[C@@H](Cc2ccncc2)C(=O)N[C@H](Cc2ccc(-c3ccccc3)cc2)C(=O)N[C@@H](CCc2ccccc2)C(=O)N1` [Compound 600], the IC50 lay within 10 to 30 µM.
As for `O=C(O)CCCNC(=O)[C@@H]1Cc2ccc(cc2)OCC(=O)N[C@@H](Cc2c[nH]c3ccccc23)C(=O)N[C@H](Cc2ccc(-c3ccccc3)cc2)C(=O)N[C@@H](Cc2c[nH]c3ccccc23)C(=O)N1` [Compound 721], the IC50 is below 10 µM.
As for `O=C1CC(=O)N[C@H](Cc2cccs2)C(=O)N[C@@H](Cc2ccc(-c3ccccc3)cc2)C(=O)N[C@H](Cc2ccccc2)C(=O)N[C@H](C(=O)O)Cc2ccc(cc2)N1` [Compound 5] ([d2Thi][Bip][dF][Phe(4-NH2)]-OH; linker N-4 via Malonyl), the IC50 lay in the range of 30 to 100 µM.
For the compound `O=C1COc2ccc(cc2)C[C@@H](C(=O)O)NC(=O)[C@H](CCc2ccccc2)NC(=O)[C@@H](Cc2ccc(-c3ccccc3)cc2)NC(=O)[C@H](Cc2ccc3ccccc3c2)N1` [Compound 695], the IC50 is below 10 µM.
On to `CC(C)(C)OC(=O)CC[C@@H]1NC(=O)[C@@H](Cc2ccc(-c3ccccc3)cc2)NC(=O)[C@H](Cc2cccs2)NC(=O)COc2ccc(cc2)C[C@@H](C(=O)O)NC1=O` [Compound 349], for which the IC50 lay in the range of 10 to 30 µM.
Turning to `C[C@@H](NC(=O)[C@@H]1Cc2ccc(cc2)NC(=O)CCC(=O)N[C@H](Cc2cccs2)C(=O)N[C@@H](Cc2ccc(-c3ccccc3)cc2)C(=O)N[C@H](CCc2ccccc2)C(=O)N1)C(=O)O` [Compound 446] ([d2Thi][Bip][d(hPhe)][Phe(4-NH2)][dA]-OH; linker N-4 via Suc), the IC50 is above 100 µM.
Take `O=C1COc2ccc(cc2)C[C@@H](C(=O)O)NC(=O)[C@@H](Cc2ccncc2)NC(=O)[C@H](Cc2ccc(-c3ccccc3)cc2)NC(=O)[C@@H](Cc2cccs2)N1` [Compound 536]: the IC50 was below 10 µM.
As for `O=C(O)CCNC(=O)[C@@H]1Cc2ccc(cc2)OCC(=O)N[C@@H](Cc2ccc(-c3ccccc3)cc2)C(=O)N[C@H](Cc2ccc(-c3ccccc3)cc2)C(=O)N[C@@H](CCc2ccccc2)C(=O)N1` [Compound 569], the IC50 was below 10 µM.
Turning to `O=C1N[C@@H](C(=O)O)Cc2ccc(cc2)NC(=O)[C@H](O)[C@@H](O)C(=O)N[C@@H](Cc2cccs2)C(=O)N[C@H](Cc2ccc(-c3ccccc3)cc2)C(=O)N[C@H]1Cc1ccccc1` [Compound 279], the IC50 is above 100 µM.
On the same count and under the same terms, the value for `O=C1COc2ccc(cc2)C[C@@H](C(=O)O)NC(=O)[C@H](Cc2ccccc2)NC(=O)[C@H](Cc2ccc(F)cc2)NC(=O)[C@H](Cc2cccs2)N1` [Compound 398] was below 10 µM.
In the case of `C[C@H]1NC(=O)[C@H](Cc2ccc(-c3ccccc3)cc2)NC(=O)[C@@H](Cc2cccs2)NC(=O)CCC(=O)Nc2ccc(cc2)C[C@@H](C(=O)O)NC1=O` [Compound 44] ([d2Thi][Bip][dA][Phe(4-NH2)]-OH; linker N-4 via Suc), the IC50 is above 100 µM.
Still for that read-out and setting: the result for `O=C1Nc2ccc(cc2)C[C@H](C(=O)N[C@@H](Cc2ccccc2)C(=O)O)NC(=O)[C@@H](Cc2ccccc2)NC(=O)[C@H](Cc2ccc(-c3ccccc3)cc2)NC(=O)[C@@H](Cc2cccs2)NC(=O)C2CC12` (some centres unmarked) [Compound 708] reads below 10 µM.
`O=C(O)[C@@H]1Cc2ccc(cc2)NC(=O)[C@H](O)[C@@H](O)C(=O)N[C@H](Cc2cccs2)C(=O)N[C@@H](Cc2ccc(Br)cc2)C(=O)N[C@H](Cc2ccccc2)C(=O)N1` [Compound 293]: the IC50 was above 100 µM.
